Here are results for 41 compounds from patent US10940139B2, “Compounds that interact with the Ras superfamily for the treatment of cancers, inflammatory diseases, rasopathies, and fibrotic disease” (Shy Therapeutics LLC, priority 2017, dated 2021).

Assay [1] concerns TNFα production in RAW 264.7 macrophage cell line. Kind of assay: Mouse TNF alpha quantification assay (LPS-stimulated macrophages, ELISA). Format: cell-based. The conditions noted are these: RAW264.7, RAW 264.7 murine leukemia virus transformed macrophage cell lines, LPS stimulation, read-out: TNF-α % Inhibition at 30 μM.
The test system of assay [2] is IL6 production in RAW 264.7 macrophage cell line. Kind of assay: Mouse IL6 quantification assay (LPS-stimulated macrophages, ELISA). Format: cell-based. The conditions noted are these: RAW264.7, RAW 264.7 murine leukemia virus transformed macrophage cell lines, LPS stimulation, read-out: IL-6 % Inhibition at 30 μM.

Each structure is given as a SMILES string.

In the case of `COc1cccc(CC2CN(C(=O)c3csc4c(O)nc(-c5ccccn5)nc34)CCN2)c1` (stereo not shown) [drawing 2223], the inhibition at 30 µM in assay [1] and in assay [2] was 1 to 25% throughout.
In the case of `COc1ccc(-c2cc3nc(-c4ccccn4)nc(O)c3s2)cc1` [drawing 2390], the inhibition at 30 µM in assay [1] was 1 to 25%; in assay [2] it was 0%.
For the compound `O=C(c1csc2c(O)nc(-c3ccccn3)nc12)N1CCC(c2ccccc2)CC1`, the inhibition at 30 µM in assay [1] was 51 to 75%; in assay [2] it was 76 to 100%.
The like results for `COc1cnc(-c2ccccn2)nc1O` [drawing 2307] were, in that order, 1 to 25% and 76 to 100%.
For `Cn1ccnc1-c1nc(NCCOC2CC2)c2c(-c3ccccc3)c(-c3ccccc3)sc2n1` [drawing 2403] the same measures were 76 to 100% and 76 to 100%.
For `O=C(CC(c1ccccc1)c1ccccc1)N1CCCc2c(O)nc(-c3ccccn3)nc21` [drawing 2086] the same measures were 0% and 26 to 50%.
With `O=C(CCc1c[nH]c2ccccc12)Nc1nnc(-c2ccccn2)[nH]1` [drawing 1941], the inhibition at 30 µM in assay [1] is 0%; in assay [2], 51 to 75%.
As for `COc1ccc(CN(CC[S+]([O-])c2cc(Cl)ccc2Cl)C2CC2)cc1` (stereo not shown) [drawing 2060], the inhibition at 30 µM was 1 to 25% in assay [1] and 0% in assay [2].
`Oc1nc(-c2ccccn2)nc2c(-c3cncc(C(F)F)c3)csc12` [drawing 2329]: the values for the inhibition at 30 µM in assay [1] and in assay [2] were 0% and 26 to 50%, respectively.
For `Cc1sc2c(O)nc(-c3ccccn3)nc2c1-c1ccccc1Cl` [drawing 2342] the same measures were 51 to 75% and 51 to 75%.
The like results for `CC(Oc1ccccc1Cl)C(=O)Nc1nnc(-c2ccccn2)[nH]1` (stereo not shown) [drawing 1937] were, in that order, 1 to 25% and 26 to 50%.
Consider `COCCNc1nc(-c2nccn2C)nc2sc(-c3ccccc3)c(-c3ccccc3)c12` [drawing 2362], for which the inhibition at 30 µM was 26 to 50% in assay [1] and 51 to 75% in assay [2].
For `CS(=O)(=O)N1CCCc2cc(C(=O)Nc3nnc(-c4ccccn4)[nH]3)ccc21` [drawing 2002] the same measures were 1 to 25% and 26 to 50%.
The like results for `CS(=O)(=O)CCCC(=O)N1CCCc2c(O)nc(-c3ccccn3)nc21` [drawing 2082] were, in that order, 0% and 26 to 50%.
For `COc1ccc2c(c1)CCC2C(=O)Nc1ccnc(-c2ccccn2)n1` (stereo not shown) [drawing 2207] the same measures were 0% and 26 to 50%.
Consider `COc1cnc(CNC(=O)c2cc3nc(-c4ccccn4)nc(O)c3s2)[nH]c1=O` [drawing 2348], for which the inhibition at 30 µM is 1 to 25% in assay [1] and 0% in assay [2].
On to `CC(OCc1ccccc1)C(=O)Nc1nnc(-c2ccccn2)[nH]1` (stereo not shown) [drawing 1971], for which the inhibition at 30 µM in assay [1] is 0%; in assay [2] it was 1 to 25%.
The like results for `Oc1nc(-c2ccccn2)nc2c(-c3ccc(CN4CCOCC4)cc3)csc12` [drawing 2274] were, in that order, 0% and 26 to 50%.
On to `COCCNc1nc(-c2cn(C)cn2)nc2sc(-c3ccccc3)c(-c3ccccc3)c12` [drawing 2410], for which the inhibition at 30 µM in assay [1] and in assay [2] was 76 to 100% in each case.
As to `Oc1nc(-c2ccccn2)nc2cc(-c3ccncc3)sc12` [drawing 2388], the inhibition at 30 µM lay within 1 to 25% in assay [1] and 26 to 50% in assay [2].
The like results for `COc1ccccc1C1CN(C(=O)c2csc3c(O)nc(-c4ccccn4)nc23)CCO1` (stereo not shown) [drawing 2192] were, in that order, 51 to 75% and 76 to 100%.
The like results for `CN(CCCc1n[nH]c(N)c1C#N)c1nc(-c2ccccn2)nc2sc(-c3ccccc3)cc12` [drawing 2142] were, in that order, 51 to 75% and 76 to 100%.
The like results for `COCCNc1nc(-c2nccn2C)nc2sc(-c3ccccc3)c(-c3ccccc3Cl)c12` [drawing 2407] were, in that order, 1 to 25% and 51 to 75%.
Turning to `O=c1nc(-c2ccccn2)[nH]c2scc(-c3ccccc3Cl)c12` [drawing 2025], the inhibition at 30 µM was 1 to 25% in assay [1] and 0% in assay [2].
On to `Cc1sc2c(O)nc(-c3nccn3C)nc2c1-c1ccccc1` [drawing 2421], for which the inhibition at 30 µM in assay [1] was 26 to 50%; in assay [2], 76 to 100%.
As for `O=C(c1csc2c(O)nc(-c3ccccn3)nc12)N1CCNC(c2ccccc2F)C1` (stereo not shown) [drawing 2200], the inhibition at 30 µM in assay [1] was 1 to 25%; in assay [2], 76 to 100%.
As to `CC(C)c1nn(C)cc1-c1csc2c(O)nc(-c3ccccn3)nc12` [drawing 2322], the inhibition at 30 µM lay in the range of 1 to 25% in assay [1] and 76 to 100% in assay [2].
For `O=C(COCc1ccnc(O)c1)Nc1nc(-c2ccccn2)nc2sccc12` [drawing 2250] the same measures were 0% and 26 to 50%.
On to `O=C(Nc1nnc(-c2ccccn2)[nH]1)c1ccc(=O)n(CCOc2ccccc2)n1` [drawing 1999], for which the inhibition at 30 µM in assay [1] was 0%; in assay [2] it was 26 to 50%.
For `N#Cc1ccc(N2CCN(C(=O)c3csc4c(O)nc(-c5ccccn5)nc34)CC2)cc1` [drawing 2182] the same measures were 0% and 26 to 50%.
On to `CC(Oc1cccc(C#N)c1)C(=O)Nc1nnc(-c2ccccn2)[nH]1` (stereo not shown) [drawing 1967], for which the inhibition at 30 µM was 0% in assay [1] and 1 to 25% in assay [2].
In the case of `Cc1cccc(C)c1OCCOC(=O)c1ccccc1SCCOc1c(C)cccc1C` [drawing 2069], the values for the inhibition at 30 µM in assay [1] and in assay [2] were 0% and 1 to 25%, respectively.
As for `O=C(c1csc2c(O)nc(-c3ccccn3)nc12)N1CCC(c2cccnc2)CC1` [drawing 2109], the inhibition at 30 µM in assay [1] was 1 to 25%; in assay [2], 76 to 100%.
In the case of `N#Cc1cccc(N2CCN(C(=O)c3csc4c(O)nc(-c5ccccn5)nc34)CC2)c1` [drawing 2181], the inhibition at 30 µM was 0% in assay [1] and 51 to 75% in assay [2].
For `Oc1nc(-c2ccccn2)nc2sc3c(c12)CCCNC3` [drawing 2245] the same measures were 1 to 25% and 1 to 25%.
Take `COCC(C)Nc1nc(-c2ccccn2)nc(C(=O)NCCCc2c[nH]cn2)c1Oc1ccccc1` (stereo not shown) [drawing 2377]: the results for the inhibition at 30 µM in assay [1] and in assay [2] were 0% and 1 to 25%, respectively.
The like results for `Cc1noc(C)c1CC(=O)Nc1nnc(-c2ccccn2)[nH]1` [drawing 1957] were, in that order, 0% and 1 to 25%.
For `O=C(Nc1nnc(-c2ccccn2)[nH]1)c1ccc(CN2C(=O)CCC2=O)cc1` [drawing 1950] the same measures were 1 to 25% and 0%.
For `O=C(Nc1nnc(-c2ccccn2)[nH]1)c1nc(N2CCOCC2)ncc1Cl` [drawing 1964] the same measures were 0% and 1 to 25%.
Turning to `Oc1nc(-c2ccccn2)nc2[nH]cnc12` [drawing 2122], the inhibition at 30 µM in assay [1] and in assay [2] was 76 to 100% each time.
As for `O=C(c1csc2c(O)nc(-c3ccccn3)nc12)N1CCNC(c2ccc(Cl)cc2)C1` (stereo not shown) [drawing 2352], the values for the inhibition at 30 µM in assay [1] and in assay [2] were 1 to 25% and 76 to 100%, respectively.
